From publication PMC2151593 (The Journal of General Physiology, 2006)

Key:
[1] = molecular target: T1, Shaker Thr449 (wild type) (Drosophila melanogaster, UniProt P08510, C301S/C308S/DEL6-46); conditions: ref Heginbotham and MacKinnon, 1992; cited from earlier work
Shaker T449X, X = 4F-Phe = format: cell-based; conditions: 4F-Phe at 449 relative to Phe; ΔΔG = RT ln(K i,X/K i,Phe)
Shaker Tyr449 = conditions: ref Heginbotham and MacKinnon, 1992; cited from earlier work
KcsA [2] = conditions: read-out: K i for TEA block; KcsA (Tyr82); ref Heginbotham et al., 1999; cited from earlier work
Shaker T449X, X = Cha = format: cell-based
[3] = tested on: Shaker, fluorinated derivatives of Phe449; test: Voltage dependence of TEA block, all fluorinated derivatives of Phe449; format: cell-based
[4] = tested on: Shaker T449X, X = 3,5F-Phe; format: cell-based; conditions: 3,5F-Phe at 449 relative to Phe; ΔΔG = RT ln(K i,X/K i,Phe)
[5] = molecular target: T1, Shaker Thr449 (wild type); test: Extracellular TEA block of voltage-clamped potassium currents, Shaker with Thr; format: cell-based; conditions: Thr at 449 relative to Phe; ΔΔG = RT ln(K i,X/K i,Phe)
[6] = tested on: Shaker T449X, X = 3,4,5F-Phe; format: cell-based; conditions: 3,4,5F-Phe at 449 relative to Phe; ΔΔG = RT ln(K i,X/K i,Phe)
KcsA [7] = test: TEA block of KcsA; format: biochemical, Streptomyces lividans; conditions: higher than for Shaker T449F
Shaker T449F = Shaker T449F (Drosophila melanogaster, UniProt P08510, C301S/C308S/DEL6-46/T449F); format: cell-based
[8] = benzene compared with hexafluorobenzene; ref Leo et al., 1971; cited from earlier work

In the case of `CC[N+](CC)(CC)CC` [TEA, tetraethylammonium], the “fraction of the transmembrane electric field sensed by TEA” value [1] is given as 19%, the ΔΔG (Shaker T449X, X = 4F-Phe) is given as 1.23 kcal/mol and the “fraction of the transmembrane electric field sensed by TEA” value (Shaker Tyr449) is given as 4%. The Ki (KcsA [2]) was 3.2 mM, the ΔΔG (Shaker T449X, X = Cha; Cha at 449 relative to Phe, ΔΔG = RT ln(K i,X/K i,Phe)) was 3.75 kcal/mol and the “effect on TEA affinity (decrease relative to Phe)” value (Shaker T449X, X = Cha; nonaromatic residue Cha at 449) was 640 fold. For the same compound, the “voltage dependence of block” value [3] was 2–8%, the ΔΔG [4] was 2.78 kcal/mol and the ΔΔG [5] was 2.58 kcal/mol. The ΔΔG [6] was 3.54 kcal/mol, the “K i for TEA block of KcsA relative to Shaker T449F” value (KcsA [7]) was roughly 10 fold and the ΔΔG (Shaker T449F; Phe at 449 (reference), ΔΔG = RT ln(K i,X/K i,Phe), RT 0.58 kcal/mol) was 0 kcal/mol.
With `CC[As+](CC)(CC)CC` [TEAs, tetraethylarsonium] the “factor by which TEAs is a weaker blocker (larger inhibitory constant) than TEA” value (Shaker T449F; Shaker T449F, unpublished data) was roughly 25 fold.
In the case of `Fc1c(F)c(F)c(F)c(F)c1F` [hexafluorobenzene], the “logP (water/octanol partition)” value [8] is listed as “nearly identical”.
